Data taken from patent US7468391B2, “Methods for treating retinoid responsive disorders using selective inhibitors of CYP26A and CYP26B” (Allergan, Inc., priority 2003, dated 2008).

Legend:
CYP26A (P450RAI-1) = target: T1, CYP26A (P450RAI-1) (Homo sapiens, UniProt O43174); assay: Cell-based inhibition of RA metabolism in CYP26A stably transfected HeLa cells; settings: stably transfected HeLa cells, [3H]-RA, 3 hours at 37° C.; read-out: P450RAI-1 Whole cell IC50
T1 construct: expressed in transfected cells; host or cells: HeLa
T1 sequence (O43174 1-497): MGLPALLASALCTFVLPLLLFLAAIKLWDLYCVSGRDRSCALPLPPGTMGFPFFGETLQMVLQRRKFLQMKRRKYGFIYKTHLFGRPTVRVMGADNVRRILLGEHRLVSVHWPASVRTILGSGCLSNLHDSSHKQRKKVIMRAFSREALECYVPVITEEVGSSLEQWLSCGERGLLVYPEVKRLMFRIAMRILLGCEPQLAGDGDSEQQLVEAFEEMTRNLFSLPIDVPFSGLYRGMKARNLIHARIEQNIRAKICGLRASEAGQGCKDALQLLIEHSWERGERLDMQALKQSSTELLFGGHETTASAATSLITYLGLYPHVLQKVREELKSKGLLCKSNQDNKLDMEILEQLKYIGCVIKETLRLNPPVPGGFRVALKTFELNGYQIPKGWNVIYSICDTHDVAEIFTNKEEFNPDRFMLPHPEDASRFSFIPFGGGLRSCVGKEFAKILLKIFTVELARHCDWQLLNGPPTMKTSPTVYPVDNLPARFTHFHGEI
Summary of the method: (§1)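 Stably transfected HeLa cells (5×10^5/well) in MEM with 10% FBS and 0.05 μCi [3H]-RA, compounds at 10, 1 or 0.1 μM final, 3 h at 37° C. Retinoids extracted by modified Bligh-Dyer (methylene chloride); aqueous radioactivity counted; ID50 for 50% inhibition of RA metabolism derived from log-transformed data.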

CYP26B (P450RAI-2) = target: T2, CYP26B (P450RAI-2) (Homo sapiens, UniProt Q9NR63); assay: Cell-based inhibition of RA metabolism in CYP26B stably transfected HeLa cells; settings: stably transfected HeLa cells, [3H]-RA, 3 hours at 37° C.; read-out: P450RAI-2 Whole cell IC50
T2 construct: expressed in transfected cells; host or cells: HeLa
T2 sequence (Q9NR63 1-512): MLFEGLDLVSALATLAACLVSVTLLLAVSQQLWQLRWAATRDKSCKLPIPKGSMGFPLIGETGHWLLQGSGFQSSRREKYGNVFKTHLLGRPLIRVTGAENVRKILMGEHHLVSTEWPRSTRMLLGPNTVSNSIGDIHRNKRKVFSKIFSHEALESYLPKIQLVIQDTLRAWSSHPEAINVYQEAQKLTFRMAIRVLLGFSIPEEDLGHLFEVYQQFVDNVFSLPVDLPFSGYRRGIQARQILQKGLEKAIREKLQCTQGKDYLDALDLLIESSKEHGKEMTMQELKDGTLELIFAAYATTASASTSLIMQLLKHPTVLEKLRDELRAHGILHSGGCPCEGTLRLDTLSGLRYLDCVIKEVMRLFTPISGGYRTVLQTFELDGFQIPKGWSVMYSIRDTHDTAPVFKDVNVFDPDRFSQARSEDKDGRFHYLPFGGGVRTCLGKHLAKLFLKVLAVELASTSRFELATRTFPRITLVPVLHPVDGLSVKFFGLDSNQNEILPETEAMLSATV
Summary of the method: as §1

RAR β [1] = target: T3, RAR β (Homo sapiens, UniProt P10826); assay: RAR β EC50/(efficacy); format: cell-based; settings: for RAR β (EFFICACY): value in brackets of cell EC50/(EFFICACY)/Kd; for EC50: first item of cell EC50/(EFFICACY)/Kd
T3 sequence (P10826 1-455): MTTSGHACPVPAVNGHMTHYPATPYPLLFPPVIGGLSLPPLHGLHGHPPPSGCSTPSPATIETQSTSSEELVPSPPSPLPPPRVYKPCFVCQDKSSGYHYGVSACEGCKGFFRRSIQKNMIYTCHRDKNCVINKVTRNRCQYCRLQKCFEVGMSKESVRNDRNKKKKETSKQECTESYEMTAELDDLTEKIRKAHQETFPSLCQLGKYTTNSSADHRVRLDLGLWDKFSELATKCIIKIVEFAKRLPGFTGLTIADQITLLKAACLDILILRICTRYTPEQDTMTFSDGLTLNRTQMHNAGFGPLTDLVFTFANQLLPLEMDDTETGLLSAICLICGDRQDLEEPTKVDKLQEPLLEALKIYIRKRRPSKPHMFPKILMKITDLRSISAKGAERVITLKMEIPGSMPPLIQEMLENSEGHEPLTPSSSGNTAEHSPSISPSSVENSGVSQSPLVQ

RAR γ [2] = target: T4, RAR γ (Homo sapiens, UniProt P13631); assay: RAR γ EC50/(efficacy); format: cell-based; settings: for RAR γ (EFFICACY): value in brackets of cell EC50/(EFFICACY)/Kd
T4 sequence (P13631 1-454): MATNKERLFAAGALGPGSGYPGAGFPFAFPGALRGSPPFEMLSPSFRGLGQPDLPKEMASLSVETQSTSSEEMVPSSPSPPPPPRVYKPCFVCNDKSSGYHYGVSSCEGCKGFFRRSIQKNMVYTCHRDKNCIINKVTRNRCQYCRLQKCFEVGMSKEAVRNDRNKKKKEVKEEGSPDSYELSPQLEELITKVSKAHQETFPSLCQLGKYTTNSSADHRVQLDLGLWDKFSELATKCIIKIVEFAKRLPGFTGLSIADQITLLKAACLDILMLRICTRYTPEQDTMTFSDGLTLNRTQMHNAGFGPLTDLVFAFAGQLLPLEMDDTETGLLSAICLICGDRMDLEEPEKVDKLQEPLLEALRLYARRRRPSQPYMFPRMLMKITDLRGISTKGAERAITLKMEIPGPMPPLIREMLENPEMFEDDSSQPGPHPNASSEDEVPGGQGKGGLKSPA

RAR α [3] = target: T5, RAR α (Homo sapiens, UniProt P10276); assay: RAR α Kd; format: binding; settings: last item of cell EC50/(EFFICACY)/Kd
T5 sequence (P10276 1-462): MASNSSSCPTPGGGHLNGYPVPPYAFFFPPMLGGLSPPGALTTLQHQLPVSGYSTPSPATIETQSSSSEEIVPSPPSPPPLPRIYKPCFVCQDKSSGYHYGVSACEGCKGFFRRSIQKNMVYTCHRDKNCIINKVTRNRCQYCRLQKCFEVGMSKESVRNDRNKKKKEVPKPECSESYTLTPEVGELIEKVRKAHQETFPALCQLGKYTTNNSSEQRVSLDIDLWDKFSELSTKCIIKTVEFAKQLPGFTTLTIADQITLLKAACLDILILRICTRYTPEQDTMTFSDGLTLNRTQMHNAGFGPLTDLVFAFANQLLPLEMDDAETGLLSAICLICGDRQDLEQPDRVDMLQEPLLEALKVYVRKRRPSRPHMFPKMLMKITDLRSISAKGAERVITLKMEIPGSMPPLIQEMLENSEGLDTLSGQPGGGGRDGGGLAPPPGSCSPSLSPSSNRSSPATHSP

RAR β [4] = target: T3, RAR β; assay: RAR β Kd; format: binding; settings: last item of cell EC50/(EFFICACY)/Kd
RAR γ [5] = target: T4, RAR γ; assay: RAR γ Kd; format: binding; settings: last item of cell EC50/(EFFICACY)/Kd
RAR α [6] = target: T5, RAR α; assay: RAR α EC50/(efficacy); format: cell-based; settings: value in brackets of cell EC50/(EFFICACY)/Kd

Compound | IC50 (CYP26A (P450RAI-1)) | IC50 (CYP26B (P450RAI-2)) | RAR β (EFFICACY) (RAR β [1]) | RAR γ (EFFICACY) (RAR γ [2]) | Kd (RAR α [3]) | Kd (RAR β [4]) | Kd (RAR γ [5]) | RAR α (EFFICACY) (RAR α [6]) | EC50 (RAR β [1]) | EC50 (RAR γ [2]; first item of cell EC50/(EFFICACY)/Kd)
CCOC(=O)C1=CCC(C)(C)c2cc(C#Cc3ccc(CC(=O)O)cc3)c(C)cc21 [Compound 55, 6-(4-Carboxymethyl-phenylethynyl)-4,4,7-trimethyl-3,4-dihydro-naphthalene-1-carboxylic acid ethyl ester] | 1.4 µM | > 10 µM | 35 | 30 | > 10 µM | > 10 µM | > 10 µM | – | – | –
C/C(=C\c1ccc(C#Cc2cccc(CN(C)C3CC3)c2)cc1)C(=O)O [Compound 33, 3-(4-{3-[(Cyclopropyl-methyl-amino)-methyl]-phenylethynyl}-phenyl)-2-methyl-acrylic acid] | > 10 µM | 1 µM | 30 | 10 | 3.25 µM | – | > 10 µM | – | – | –
CC1(C)CC2(CC2)Oc2c(C3CC3)cc(C#Cc3ccc(/C=C(\Cl)C(=O)O)cc3)cc21 [Compound 4] | 0.12 µM | > 10 µM | 20 | 15 | > 10 µM | > 10 µM | > 10 µM | – | – | –
C=Cc1cc(C#Cc2ccc(CC(=O)O)cc2)cc2c1C(N(C)C1CC1)CCC2(C)C (stereo not drawn) [Compound 23, {4-[5-(Cyclopropyl-methyl-amino)-8,8-dimethyl-4-vinyl-5,6,7,8-tetrahydro-naphthalen-2-ylethynyl]-phenyl}-acetic acid] | 0.008 µM | 0.5 µM | 40 | 35 | > 10 µM | > 10 µM | > 10 µM | – | – | –
CCOC(=O)C1CCC(C)(C)c2cc(C#Cc3ccc(CC(=O)O)cc3)c(C)cc21 (stereo not drawn) [Compound 57, 6-(4-Carboxymethyl-phenylethynyl)-4,4,7-trimethyl-1,2,3,4-tetrahydro-naphthalene-1-carboxylic acid ethyl ester] | 0.4 µM | – | 50 | 35 | 6.03 µM | 4.98 µM | 7.74 µM | – | – | –
CC(C)OC(=O)c1ccc(C#Cc2ccc(CC(=O)O)cc2)cc1CN(C)C1CC1 [Compound 38, 4-(4-Carboxymethyl-phenylethynyl)-2-[(cyclopropyl-methyl-amino)-methyl]-benzoic acid isopropyl ester] | 4 µM | > 10 µM | – | – | > 10 µM | > 10 µM | > 10 µM | 10 | – | –
Cc1ccc(C(C)(C)C)cc1C#Cc1ccc(/C=C/C(=O)O)cc1 [Compound 36, 3-[4-(5-tert-Butyl-2-methyl-phenylethynyl)-phenyl]-acrylic acid] | > 10 µM | 0.4 µM | 40 | 15 | > 10 µM | 3.52 µM | 2.08 µM | – | – | –
CC(C)(C)c1cccc(C#Cc2ccc(/C=C/C(=O)O)cc2)c1 [Compound 35, (E)-3-[4-(3-tert-Butyl-phenylethynyl)-phenyl]-acrylic acid] | > 10 µM | 0.5 µM | 80 | 48 | 1.93 µM | 2.09 µM | 2.89 µM | – | 0.016 µM | 0.126 µM
CN(C1CC1)C1CCC(C)(C)c2cc(C#Cc3ccc(/C=C/C(=O)O)cc3)cc(C3CC3)c21 (stereo not drawn) [Compound 48, 3-{4-[4-Cyclopropyl-5-(cyclopropyl-methyl-amino)-8,8-dimethyl-5,6,7,8-tetrahydro-naphthalen-2-ylethynyl]-phenyl}-acrylic acid] | 0.7 µM | – | 40 | 25 | – | – | – | – | – | –
CCOC(=O)C1=CCC(C)(C)c2cc(C#Cc3ccc(CC(=O)O)c(F)c3)ccc21 [Compound 60, 6-(4-Carboxymethyl-3-fluoro-phenylethynyl)-4,4-dimethyl-3,4-dihydro-naphthalene-1-carboxylic acid ethyl ester] | 0.06 µM | 2.6 µM | 60 | 15 | 6.32 µM | 3.96 µM | 8.99 µM | – | – | –
C/C(=C\c1ccc(C#Cc2cc(C3CC3)c3c(c2)C(C)(C)CC2(CC2)O3)cc1)C(=O)O [Compound 3] | 0.25 µM | > 10 µM | 15 | 10 | > 10 µM | 0.52 µM | 6.04 µM | – | – | –
CCC1(CC)CC(C)(C)c2cc(C#Cc3ccc(C(C)(C)C(=O)O)cc3)cc(C(C)C)c2O1 [Compound 14, 2-[4-(2,2-Diethyl-8-isopropyl-4,4-dimethyl-chroman-6-ylethynyl)-phenyl]-2-methyl-propionic acid] | 0.7 µM | > 10 µM | 10 | 25 | 5.17 µM | 7.4 µM | > 10 µM | – | – | –
CC1(C)CC2(CC2)Oc2c(C3CC3)cc(NC(=O)Nc3ccc(C(=O)O)cc3)cc21 [Compound 5, 4-{3-[8-Cyclopropyl-3,3-dihydro-4,4-dimethylspiro(2H-1-benzopyran-2,2′-cyclopropane)-6-yl]-ureido}-benzoic acid] | > 10 µM | 0.45 µM | 55 | 15 | > 10 µM | 4.54 µM | > 10 µM | – | 0.32 µM | –
